Results reported in patent US20250327028A1, “ENGINEERED PLATELETS AS TARGETED PROTEIN DEGRADERS” (Wisconsin Alumni Research Foundation, priority 2024, published 2025).

Legend:
4T1 cells = test: HAC-B-mediated internalization of streptavidin in 4T1 cells; assay type: cell-based, murine; details: 4T1 cells pretreated 5 μM 2 h, vs cells without pretreatment
Method: HAC-B-mediated internalization of streptavidin in 4T1 cells: 5×10^4 4T1 cells were seeded in a confocal dish and cultured for 24 h at 37° C. Then, the cells were treated with free HAC-B at 5 μM for 2 h. Next, the drug-containing medium was removed, and PBS was used to wash the cells twice, followed by incubating the cells in the blank medium containing streptavidin-FITC at 0.5 μM for 1 h. For cotreatment, 4T1 cells were cotreated with 5 μM HAC-B and 0.5 μM FITC-SA for 1 h. Before staining with Hoechst 33342, the cells were washed with PBS twice and fixed with 4% PFA at room temperature for 20 min. Finally, the cells were subjected to Leica SP8 Confocal WLL STED microscopy for observation.

HSP90 = test: HAC-B-mediated HSP90 labeling, streptavidin-mediated immunoblot analysis; assay type: cell-based, murine; details: 4T1 cells, 2 h
Method: Identification of HAC-B-mediated HSP90 labeling: Streptavidin-mediated immunoblot analysis: 4T1 cells were seeded in 6-well culture plates with a density of 5×10^4 cells in each well and cultured for 24 h. Following washing with PBS twice, the cells were treated with free HAC-B at the indicated concentrations for 2 h. Then, the cells were washed with PBS and lysed on ice with the RIPA buffer containing PMSF (1 mM) and the phosphatase inhibitor cocktail for 30 min. Next, the lysates were centrifuged at 10,000 g for 10 minutes at 4° C., and the corresponding supernatants were collected, followed by quantification of the total proteins in the supernatant through the BCA assay. Subsequently, the proteins in the supernatant were mixed with ¼ volume of 5× sample buffer formulated by Tris-HCl (pH 6.8, 312.5 mM), sucrose (25%), SDS (10%), bromophenol blue (0.025%), and DTT (250 mM). After incubation for 1 h at room temperature, equal amounts of proteins from different samples ([…]) were loaded into the 10% Bis-Tris gel. The separated proteins were transferred to PVDF membrane before the membranes were blocked with 5% nonfat milk in PBS-T. The PVDF membrane was incubated with streptavidin-HRP at room temperature for 2 h. […] Finally, the bands were treated with ECL western blot substrate and detected by the iBright™ imaging system.

BRD4 = molecular target: T1, BRD4 (Homo sapiens, UniProt O60885); test: Immunoblot analysis of BRD4 degradation in WT MDA-MB-231 cells after free HAC treatment; assay type: cell-based
T1 construct: endogenous in cells; host or cells: WT MDA-MB-231 (ATCC)
Excerpt: Immunoblot analysis: Immunoblot analysis was used to evaluate the expression of BRD4, HSP90, HSP90a, and PD-L1 in 4T1, WT MDA-MB-231, HSP90α-KO MDA-MB-231 or PEA-10 cells after various treatments and also served as the detection method for IP or co-IP experiments. The procedures for preparing IP or co-IP samples were indicated in the relevant experimental parts.
Sample preparation for various cancer cells after free HAC treatment: Various cells, including 4T1, WT MDA-MB-231, HSP90α-KO MDA-MB-231, or PEA-10 cells, were seeded in 6-well culture plates with a density of 5×10^4 cells in each well and cultured for 24 h. Then, if HAI pretreatment was performed, the cells were incubated in the HAI-containing blank medium at different concentrations for 2 h and washed with PBS twice before the following treatments. The medium in the corresponding wells was replaced with 1 mL of blank medium containing the DMSO vehicle, HACs, or the combinations of various free ligands at the predetermined concentrations. After incubation for the indicated time points, cells were washed with PBS and lysed on ice with the relevant lysis buffer containing PMSF (1 mM) and the phosphatase inhibitor cocktail for 30 min. As for the conditioned medium (CM), the culturing complete medium of the corresponding cancer cells in each well was collected after 24-h incubation and subjected to centrifugation at 2000 rpm for 5 min to obtain the supernatant. The filtrate of the supernatants was collected following filtration over a 0.45 μm filter, serving as the CM. […]
General procedures for immunoblot analysis: After a 30-min lysis, the lysates were centrifuged at 10,000 g for 10 minutes at 4° C., and the corresponding supernatants were collected, followed by quantification of the total proteins in the supernatant through the BCA assay. […] Finally, the bands were treated with electrochemiluminescence (ECL) western blot substrate, detected by the iBright™ imaging system and quantified with ImageJ software. […]

SMILES | internalization of streptavidin-FITC (4T1 cells) | concentration that labels HSP90 with higher efficiency (HSP90) | biotin labeling of HSP90 (detected by HRP-streptavidin) (HSP90; various concentrations) | shape of concentration response of BRD4 degradation (BRD4; at relatively lower concentrations, reversed at 20 μM) | time dependence of BRD4 downregulation (BRD4; at the two effective concentrations)
N#CCN(C(=O)CCCC[C@@H]1SC[C@@H]2NC(=O)N[C@@H]21)S(=O)(=O)c1ccc(C(=O)NCCCn2c(Sc3cc4c(cc3I)OCO4)nc3c(N)ncnc32)cc1 [HAC-B, N-(3-(6-amino-8-((6-iodobenzo[d][1,3]dioxol-5-yl)thio)-9H-purin-9-yl)propyl)-4-(N-(cyanomethyl)-N-(5-((3aS,4S,6aR)-2-oxohexahydro-1H-thieno[3,4-d]imidazol-4-yl)pentanoyl)sulfamoyl)benzamide] | much stronger green fluorescence signals | over 0.8 μM | modified HSP90 within 2 h in a concentration-dependent manner |  | 
Cc1sc2c(c1C)C(c1ccc(Cl)cc1)=N[C@@H](CC(=O)NCc1cn(CCCC(=O)N(CC#N)S(=O)(=O)c3ccc(C(=O)NCCCn4c(Sc5cc6c(cc5I)OCO6)nc5c(N)ncnc54)cc3)nn1)c1nnc(C)n1-2 [iHAC, (S)—N-(3-(6-amino-8-((6-iodobenzo[d][1,3]dioxol-5-yl)thio)-9H-purin-9-yl)propyl)-4-(N-(4-(4-((2-(4-(4-chlorophenyl)-2,3,9-trimethyl-6H-thieno[3,2-f][1,2,4]triazolo[4,3-a][1,4]diazepin-6-yl)acetamido)methyl)-1H-1,2,3-triazol-1-yl)butanoyl)-N-(cyanomethyl)sulfamoyl)benzamide] |  |  |  | hook effect | in a time-dependent manner
